Patent US10159726B2, “Peptides, combination of peptides and scaffolds for use in immunotherapeutic treatment of various cancers” (Immatics Biotechnologies GmbH, priority 2015, dated 2018)

Experiments:
[1] = test system: CD8+ T cells of healthy HLA-A*24+ donor; experiment: In vitro T-cell priming (immunogenicity) with aAPCs loaded with HLA-A*24 peptide/MHC and anti-CD28, multimer readout; type: cell-based, human; conditions: HLA-A*24 peptides; in vitro priming, multimer readout
Experimental: In order to obtain information regarding the immunogenicity of the TUMAPs of the present invention, the inventors performed investigations using an in vitro T-cell priming assay based on repeated stimulations of CD8+ T cells with artificial antigen presenting cells (aAPCs) loaded with peptide/MHC complexes and anti-CD28 antibody.
PBMCs and isolated CD8+ lymphocytes were incubated in T-cell medium (TCM) until use consisting of RPMI-Glutamax (Invitrogen, Karlsruhe, Germany) supplemented with 10% heat inactivated human AB serum (PAN-Biotech, Aidenbach, Germany), 100 U/ml Penicillin/100 μg/ml Streptomycin (Cambrex, Cologne, Germany), 1 mM sodium pyruvate (CC Pro, Oberdorla, Germany), 20 μg/ml Gentamycin (Cambrex). 2.5 ng/ml IL-7 (PromoCell, Heidelberg, Germany) and 10 U/ml IL-2 (Novartis Pharma, Nürnberg, Germany) were also added to the TCM at this step.
Generation of pMHC/anti-CD28 coated beads, T-cell stimulations and readout was performed in a highly defined in vitro system using four different pMHC molecules per stimulation condition and 8 different pMHC molecules per readout condition.
The purified co-stimulatory mouse IgG2a anti human CD28 Ab 9.3 (Jung et al., 1987) was chemically biotinylated using Sulfo-N-hydroxysuccinimidobiotin as recommended by the manufacturer (Perbio, Bonn, Germany). Beads used were 5.6 μm diameter streptavidin coated polystyrene particles (Bangs Laboratories, Illinois, USA).
800.000 beads/200 μl were coated in 96-well plates in the presence of 4×12.5 ng different biotin-pMHC, washed and 600 ng biotin anti-CD28 were added subsequently in a volume of 200 μl. Stimulations were initiated in 96-well plates by co-incubating […] CD8+ T cells with 2×10^5 washed coated beads in 200 μl TCM supplemented with 5 ng/ml IL-12 (PromoCell) for 3 days at 37° C. Half of the medium was then exchanged by fresh TCM supplemented with 80 U/ml IL-2 and incubating was continued for 4 days at 37° C. This stimulation cycle was performed for a total of three times. For the pMHC multimer readout using 8 different pMHC molecules per condition, a two-dimensional combinatorial coding approach was used as previously described (Andersen et al., 2012) with minor modifications encompassing coupling to 5 different fluorochromes. Finally, multimeric analyses were performed by staining the cells with Live/dead near IR dye (Invitrogen, Karlsruhe, Germany), CD8-FITC antibody clone SK1 (BD, Heidelberg, Germany) and fluorescent pMHC multimers. For analysis, a BD LSRII SORP cytometer equipped with appropriate lasers and filters was used. Peptide specific cells were calculated as percentage of total CD8+ cells. Evaluation of multimeric analysis was done using the FlowJo software (Tree Star, Oregon, USA). In vitro priming of specific multimer+ CD8+ lymphocytes was detected by comparing to negative control stimulations.
Exemplary flow cytometry results after TUMAP-specific multimer staining for 2 peptides of the invention are shown in FIG. 3 together with corresponding negative controls. Exemplary flow cytometry results after TUMAP-specific multimer staining for 7 peptides of the invention are shown in FIGS. 4 and 5 together with corresponding negative controls.

HLA-A*24 = experiment: MHC binding assay, UV-ligand exchange with beta2m ELISA, HLA-A*24; set-up: species or system human; conditions: binding to HLA-A*24, UV-ligand exchange, β2m ELISA
Excerpt: Candidate peptides for T cell based therapies according to the present invention were further tested for their MHC binding capacity (affinity). The individual peptide-MHC complexes were produced by UV-ligand exchange, where a UV-sensitive peptide is cleaved upon UV-irradiation, and exchanged with the peptide of interest as analyzed. Only peptide candidates that can effectively bind and stabilize the peptide-receptive MHC molecules prevent dissociation of the MHC complexes. To determine the yield of the exchange reaction, an ELISA was performed based on the detection of the light chain (β2m) of stabilized MHC complexes. The assay was performed as generally described in Rodenko et al. (Rodenko et al., 2006).
96 well MAXISorp plates (NUNC) were coated over night with 2 ug/ml streptavidin in PBS at room temperature, washed 4× and blocked for 1 h at 37° C. in 2% BSA containing blocking buffer. […] Peptide-MHC monomers of the UV-exchange reaction were diluted 100 fold in blocking buffer. Samples were incubated for 1 h at 37° C., washed four times, incubated with 2 ug/ml HRP conjugated anti-β2m for 1 h at 37° C., washed again and detected with TMB solution that is stopped with […]. Absorption was measured at 450 nm. Candidate peptides that show a high exchange yield (preferably higher than 50%, most preferred higher than 75%) are generally preferred for a generation and production of antibodies or fragments thereof, and/or T cell receptors or fragments thereof, as they show sufficient avidity to the MHC molecules and prevent dissociation of the MHC complexes.

| Substance | in vitro immunogenicity, Wells positive [%] [1] | Peptide exchange (MHC class I binding score, peptide exchange yield) (HLA-A*24) |
| --- | --- | --- |
| 98 (VFPRLHNVLF; listed as Homo sapiens) [compound 98] | + (<20% = +) | – |
| 103 (NYIPVKNGKQF; listed as Homo sapiens) [compound 103] | + (<20% = +) | – |
| 105 (IYNETITDLL; listed as Homo sapiens) [compound 105] | + (<20% = +) | – |
| 106 (IYNETVRDLL; listed as Homo sapiens) [compound 106] | + (<20% = +) | – |
| 111 (VYVQILQKL; listed as Homo sapiens) [compound 111] | + (<20% = +) | – |
| 115 (RYLNKSFVL; listed as Homo sapiens) [compound 115] | + (<20% = +) | – |
| 142 (VYVDDIYVI; listed as Homo sapiens) [compound 142] | ++++ (>=70% = ++++) | – |
| 157 (DYIPASGFALF; listed as Homo sapiens) [compound 157] | + (<20% = +) | – |
| 158 (IYEETRGVLKVF; listed as Homo sapiens) [compound 158] | + (<20% = +) | – |
| 160 (RYGDGGSSF; listed as Homo sapiens) [compound 160] | + (<20% = +) | – |
| 161 (KYPDIVQQF; listed as Homo sapiens) [compound 161] | + (<20% = +) | – |
| 162 (KYTSYILAF; listed as Homo sapiens) [compound 162] | + (<20% = +) | – |
| 164 (HYVPATKVF; listed as Homo sapiens) [compound 164] | + (<20% = +) | – |
| 167 (RYGFYYVEF; listed as Homo sapiens) [compound 167] | ++++ (>=70% = ++++) | – |
| 174 (VYEKNGYIYF; listed as Homo sapiens) [compound 174] | ++++ (>=70% = ++++) | – |
| 175 (LYSPVPFTL; listed as Homo sapiens) [compound 175] | + (<20% = +) | – |
| 220 (SYSEIKDFL; listed as Homo sapiens) [compound 220] | – | ++++ (>=75% = ++++) |
| 221 (KYIGNLDLL; listed as Homo sapiens) [compound 221] | – | ++++ (>=75% = ++++) |
| 223 (TFITQSPLL; listed as Homo sapiens) [compound 223] | – | ++++ (>=75% = ++++) |
| 231 (AFADVSVKF; listed as Homo sapiens) [compound 231] | – | ++++ (>=75% = ++++) |
| 248 (AFPTFSVQL; listed as Homo sapiens) [compound 248] | – | ++++ (>=75% = ++++) |
| 249 (RYHPTTCTI; listed as Homo sapiens) [compound 249] | – | ++++ (>=75% = ++++) |
| 252 (AFGQETNVPLNNF; listed as Homo sapiens) [compound 252] | – | ++++ (>=75% = ++++) |
| 260 (VYMNVMTRL; listed as Homo sapiens) [compound 260] | – | ++++ (>=75% = ++++) |
| 261 (GYIKLINFI; listed as Homo sapiens) [compound 261] | – | ++++ (>=75% = ++++) |

| Substance | in vitro immunogenicity, Wells positive [%] [1] | Peptide exchange (MHC class I binding score, peptide exchange yield) (HLA-A*24) |
| --- | --- | --- |
| 262 (VYSSQFETI; listed as Homo sapiens) [compound 262] | – | ++++ (>=75% = ++++) |
| 264 (LYTETRLQF; listed as Homo sapiens) [compound 264] | – | ++++ (>=75% = ++++) |
| 265 (SYLNEAFSF; listed as Homo sapiens) [compound 265] | – | ++++ (>=75% = ++++) |
| 271 (RFLMKSYSF; listed as Homo sapiens) [compound 271] | – | ++++ (>=75% = ++++) |
| 272 (RYVFPLPYL; listed as Homo sapiens) [compound 272] | – | ++++ (>=75% = ++++) |
| 274 (KQLDIANYELF; listed as Homo sapiens) [compound 274] | – | ++++ (>=75% = ++++) |
| 275 (KYGTLDVTF; listed as Homo sapiens) [compound 275] | – | ++++ (>=75% = ++++) |
| 276 (QYLDVLHAL; listed as Homo sapiens) [compound 276] | – | ++++ (>=75% = ++++) |
| 280 (TYNPNLQDKL; listed as Homo sapiens) [compound 280] | – | ++++ (>=75% = ++++) |
| 286 (SYGTILSHI; listed as Homo sapiens) [compound 286] | – | ++++ (>=75% = ++++) |
| 289 (FFHEGQYVF; listed as Homo sapiens) [compound 289] | – | ++++ (>=75% = ++++) |
| 290 (KYGDFKLLEF; listed as Homo sapiens) [compound 290] | – | ++++ (>=75% = ++++) |
| 292 (FYPQIINTF; listed as Homo sapiens) [compound 292] | – | ++++ (>=75% = ++++) |
| 293 (VYPHFSTTNLI; listed as Homo sapiens) [compound 293] | – | ++++ (>=75% = ++++) |
| 296 (SYQVIFQHF; listed as Homo sapiens) [compound 296] | – | ++++ (>=75% = ++++) |
| 297 (TYIDTRTVF; listed as Homo sapiens) [compound 297] | – | ++++ (>=75% = ++++) |
| 298 (AYKSEVVYF; listed as Homo sapiens) [compound 298] | – | ++++ (>=75% = ++++) |
| 301 (KFDDVTMLF; listed as Homo sapiens) [compound 301] | – | ++++ (>=75% = ++++) |
| 305 (NYENKQYLF; listed as Homo sapiens) [compound 305] | – | ++++ (>=75% = ++++) |
| 311 (EYLQNLNHI; listed as Homo sapiens) [compound 311] | – | ++++ (>=75% = ++++) |
| 313 (KYTHFIQSF; listed as Homo sapiens) [compound 313] | – | ++++ (>=75% = ++++) |
| 319 (KYSDVKNLI; listed as Homo sapiens) [compound 319] | – | ++++ (>=75% = ++++) |
| 357 (QFITSTNTF; listed as Homo sapiens) [compound 357] | – | ++++ (>=75% = ++++) |
| 379 (VFIAQGYTL; listed as Homo sapiens) [compound 379] | – | ++++ (>=75% = ++++) |
